Measured values from patent US20070037887A1, “Blockade of mtor to prevent a hormonal adaptive response” (University of Virginia Patent Foundation, priority 2003, published 2007).

Tests used:
[1] = test system: ERK1/2, Akt, p70S6K, PHAS-1 phosphorylation in LTED cells; assay: EGF induced activation of MAP kinase, PI3 kinase and mTOR in LTED cells (Western); assay type: cell-based, human; conditions: pretreatment FTS 1 h, LY 294002 or rapamycin 3 h; EGF 1 μg/ml 1 h
Source text: FIG. 8 represents data showing the effect of FTS on EGF induced activation of MAP kinase, PI3 kinase, and mTOR in LTED cells. […] Cells were then harvested and cell lysate prepared. Phosphorylated and total kinases were detected by Western analysis using specific antibodies.
The effects of the specific growth factors, EFG and IGF-1 were also examined. Serum contains multiple growth factors that activate MAP kinase and PI3 kinase either by recruitment and activation of the common mediator Ras (such as EGF) or through a direct mechanism (such as IGF-1). To further explore the site of action of FTS, EGF-induced activation of MAPK and PI3 kinase was first examined. Specific inhibitors for PI3 kinase and mammalian target of rapamycin (mTOR) were included for comparison. […] One-hour treatment was chosen as the time point allowing most efficient comparisons among molecules.

[2] = test system: Shc; assay: E2-induced Shc phosphorylation in MCF-7 cells; assay type: cell-based, human; conditions: 10^−10 M E2 for 3 minutes
Protocol: Because ERα, Shc and MAP kinase are all involved in E2 action in MCF-7 cells, upstream components responsible for Shc phosphorylation were determined by measuring the effects of PP2, ICI and PD98059 on E2-induced phosphorylation of Shc. In the presence of the inhibitors, MCF-7 cells were stimulated with vehicle or 10^−10 M E2 for 3 minutes and the status of Shc phosphorylation was examined. […] No effects of these inhibitors were apparent in the absence of E2 stimulation. […] Each of these inhibitors was capable of reducing the rate of cell proliferation in LTED cells.

[3] = test system: LTED cells; assay: [3H] thymidine incorporation into DNA, LTED cells; assay type: cell-based, human; conditions: inhibitors of the MAP kinase pathway
Protocol: (§1) FIGS. 5A & 5B represent the effect of FTS on DNA synthesis in MCF-7 (FIG. 5A) and LTED (FIG. 5B) cells. One hundred thousand cells were plated into each well of 24-well plates. Two days later, the cells were re-fed with IMEM containing 5% DCC-FBS. After another two days, cells were treated in quadruplicate with the compounds indicated for 18 hours. [^3H] thymidine (1 μCi/well) was added during the last 2 h of incubation. [^3H] thymidine incorporated into DNA was normalized by protein content.
(§2) The inhibitory effect of FTS on cell growth may be the result of inhibition of cellular proliferation, induction of apoptosis, or both. To determine the mechanism by which FTS inhibits cell growth, FTS's effect on DNA synthesis and apoptosis was investigated. […] Estradiol (10^−10 M) increased [^3H] thymidine incorporation by 2.6 fold compared to the control level in MCF-7 cells.

[4] = test system: MAP kinase; assay: MAP kinase activation in LTED cells; assay type: cell-based, human
Protocol: Upregulation of MAP kinase and PI-3-kinase could reflect either a constitutive activation of growth factor receptors, an increase in the endogenous secretion of growth factors, or other mechanisms. Inhibition of MAP kinase with a pure antiestrogen would rule out the possibility of constitutive activation of growth factor receptors or growth factor secretion. Accordingly, the pure anti-estrogen, faslodex (fulvestrant) was administered and the level of activation of MAP kinase in LTED cells was examined.
Estrogen deprivation might trigger activation of a non-genomic, estrogen regulated, MAP kinase pathway which utilizes Shc. […] The addition of E2 stimulated MAP kinase phosphorylation in LTED cells within minutes. The increased MAP kinase phosphorylation by E2 was time and dose-dependent being greatly stimulated at 15 min and remaining elevated for at least 30 min. Maximal stimulation of MAP kinase phosphorylation was at 10^−10 M of E2.

[5] = test system: MCF-7 cells; assay: Growth of MCF-7 cells (cell number); assay type: cell-based, human; conditions: E2 10^−10 M, five-day treatment
Protocol: FIG. 3 represents the effect of FTS on the growth of MCF-7, LTED, and MCF-10A cells. Sixty thousand cells were plated into each well of 6-well plates. Two days later, the cells were treated in triplicate for five days with FTS at indicated concentrations. The results (mean±S.E.) are expressed as percentage of the vehicle control.
FIG. 4 represents the effect of FTS on E2 stimulated growth of MCF-7 and LTED cells. Thirty thousand cells were plated into each well of 6-well plates. Two days later, the cells were re-fed with IMEM containing 5% DCC-FBS. After another two days, cells were treated in triplicate with estradiol (10^−10 M) plus various concentrations of FTS for five days. In LTED cells, fulvestrant (10^−9 M) was included in all wells to block the effect of residual estrogen in the culture. The results (mean±S.E.) are expressed as percentage of cell number from the wells containing E2.
The effect of FTS on growth of breast cancer cells was examined in two different cell lines: MCF-7 wild type cells which represent a model for untreated breast cancer and LTED cells as a model of cells adapting to endocrine treatment. Cells were grown in their culture media and treated with FTS for five days. […] The effect of FTS on E2-stimulated growth of MCF-7 and LTED cells was the examined. Five-day treatment of MCF-7 cells with E2 (10^−10 M) increased cell number by 8-fold compared with the vehicle control. Addition of FTS reduced cell number in a dose-dependent manner with about 50% inhibition at the concentration of 50 μM […]. […] The extent of inhibition of E2-stimulated cell growth by FTS was similar in these two cell lines.

[6] = test system: MCF-7 cells; assay: [3H] thymidine incorporation into DNA, MCF-7 cells; assay type: cell-based, human; conditions: Estradiol 10^−10 M
Protocol: as §1, §2

[7] = molecular target: T1, mTOR (Rattus norvegicus, UniProt P42346); assay: Immune complex assay of mTOR activity after incubating 293T cells with compound; assay type: cell-based; conditions: 293T cells incubated with 200 μM
T1 construct: expressed in transfected cells; host or cells: 293T
Protocol: (§3) FIGS. 12A & 12B represent data showing the effects of incubating cells with increasing concentrations of FTS and GTS on mTOR activity and mTOR association with raptor and mLST8. AU1-mTOR, HA-raptor, and HAmLST8 were overexpressed in 293T cells. The cells were then incubated for 1 h with increasing concentrations of FTS (●, ▴, ▪) or GTS (∘, Δ, □) before extracts were prepared. Immunoprecipitations were then conducted with anti-AU1 antibodies. mTOR kinase activity (●, ∘) was determined by measuring ^32P incorporation into [His^6]PHAS-I in immune complex kinases assays performed with [γ-^32P]ATP. The relative amounts of HA-raptor (▴, Δ) and HA-mLST8 (▪, □) that coimmunoprecipitated with AU1-mTOR were determined after immunoblotting with anti-HA antibodies. The results (mean values±S.E. from 3 experiments) are expressed as percentages of the mTOR activity (FIG. 12A) or coimmunoprecipitating proteins (FIG. 12B) from samples incubated without FTS or GTS, and have been corrected for the amounts of AU1-mTOR immunoprecipitated.
FIG. 12A presents results of immune complex kinases assays with AU1-mTOR from extracts of 293T cells that had been incubated with increasing concentrations of FTS.
Immune complex assay of mTOR activity—AU1-mTOR was immunoprecipitated by using anti-AU1 antibody bound to protein G-agarose beads as described previously (McMahon, et al., (2002) Mol. Cell. Biol. 22, 7428-7438). Endogenous mTOR was immunoprecipitated in the same manner, except that mTAb1 was used instead of anti-AU1 antibody. To measure kinase activity, exhaustively washed immune complexes were suspended in 20 μl of Buffer A (50 mM NaCl, 0.1 mM EGTA, 1 mM dithiothreitol (DTT), […], 10 mM Na-HEPES, and 50 mM β-glycerophosphate, pH 7.4.). The kinase reactions were initiated by adding 20 μl of Buffer A supplemented with 2 mM [γ-^32P]ATP, 20 mM MnCl2 and 40 μg/ml of [His^6]PHAS-I. In experiments in which the effects of wortmannin were investigated, DTT was omitted from the reactions, and [His^6]PHAS-I that had been reduced and alkylated with N-ethylmaleimide was used as substrate. Reactions were terminated after 10 min at 30° by adding SDS sample buffer. Samples were subjected to SDS-PAGE and the relative amounts of ^32P incorporated into [His^6]PHAS-I were determined.

[8] = test system: mTOR-raptor complex; assay: Coimmunoprecipitation of raptor with mTOR from 293T cells incubated with compound; assay type: cell-based; conditions: 293T cells incubated with 200 μM
Protocol: FIG. 11A & 11B represent data showing FTS inhibits PHAS-I phosphorylation and promotes dissociation of the mTOR-raptor complex in 293T cells. 293T cells were transfected with pcDNA3AU1-mTOR, pcDNA33HARaptor, pcDNA33HA-mLST8, and pCMV-Tag3APHAS-I (FIG. 11A). After 18 h the cells were incubated for 1 h with increasing concentrations of FTS before extracts were prepared. A sample of each extract was subjected to SDS-PAGE and immunoblotted to detect PHAS-I or PThr^36/45. AU1-mTOR was also immunoprecipitated from each extract, and immune complexes were subjected to SDSPAGE and immunoblotted with mTAb2, to detect mTOR, and with anti-HA antibodies, to detect HA-mLST8 and HA-raptor. Nontransfected 293T cells were incubated with increasing concentrations of FTS for 1 h before extracts were prepared. mTOR was immunoprecipitated with mTAb1, and samples were subjected to SDS-PAGE.
as §3
To investigate further the inhibitory effects of FTS on mTOR signaling, the effect of the drug on the association of mTOR, raptor, and mLST8 was determined. AU1-mTOR and HA-tagged forms of raptor and mLST8 were overexpressed in 293T cells, which were then incubated with increasing concentrations of FTS before AU1-mTOR was immunoprecipitated with anti-AU1 antibodies. Immunoblots were prepared with anti-HA antibodies to assess the relative amounts of HA-raptor and HA-mLST8 that coimmunoprecipitated with AU 1-mTOR (FIG. 11A).
Results obtained with overexpressed proteins are not necessarily representative of responses of endogenous proteins. Therefore, experiments were conducted to investigate the effect FTS on the endogenous TORC1 in nontransfected cells. […]

[9] = test system: MCF-7 cells; assay: Estradiol dose response of growth, wild type MCF-7 cells; assay type: cell-based, human; conditions: TGF alpha 10 ng/ml
Protocol: As further evidence of the role of MAP kinase, PD 98059 was administered to LTED cells and its effect on level of sensitivity to estradiol was examined.
To investigate whether the MAP and P13 kinase pathways have a role in estradiol induced cell proliferation, the following experiments were conducted. […] Blockade of this effect was obtained with the MAPK inhibitor PD98059. Administration of TGF at a dose of 10 ng/ml caused a 2-log shift to the left in the ability of estradiol to stimulate the growth of wild-type MCF-7 cells. […] Dual inhibition of PI3K with LY40029 and MAPK with U0126 shifted the level of sensitivity to estradiol more dramatically, by more than 2 logs to the right. On the basis of these observations, it is believed that adaptive hypersensitivity involves the joint activation of the PI3K and MAPK pathways.

## O=c1cc(N2CCOCC2)oc2c(-c3ccccc3)cccc12 [LY 294002, reference compound]
[1]
  EGF-induced ERK1/2 MAP kinase phosphorylation: did not inhibit

## CC(C)(C)n1nc(-c2ccc(Cl)cc2)c2c(N)ncnc21 [PP2]
[2]
  E2-induced Shc phosphorylation: effectively inhibited

## N#CC(=C(/N)Sc1ccccc1N)/C(C#N)=C(\N)Sc1ccccc1N [U 0126]
[3]
  incorporation of tritiated thymidine into DNA: block the incorporation

## C[C@]12CC[C@@H]3c4ccc(O)cc4CC[C@H]3[C@@H]1CC[C@@H]2O [estradiol, reference compound]
[4]
  concentration of maximal stimulation of MAP kinase phosphorylation: 10^−10 M
[5]
  increase of cell number compared with the vehicle control: 8 fold
[6]
  increase of [3H] thymidine incorporation compared to control level: 2.6 fold

## O=c1c(-c2ccc(O)cc2)coc2cc(O)cc(O)c12 [genestein]
[3]
  incorporation of tritiated thymidine into DNA: block tritiated thymidine uptake

## CC[C@H](C)C(=O)O[C@H]1CCC=C2C=C[C@H](C)[C@H](CC[C@@H]3C[C@@H](O)CC(=O)O3)[C@H]21 [mevastatin]
[3]
  incorporation of tritiated thymidine into DNA: block tritiated thymidine uptake

## CO[C@H]1C[C@@H]2CC[C@@H](C)[C@@](O)(O2)C(=O)C(=O)N2CCCC[C@H]2C(=O)O[C@H]([C@H](C)C[C@@H]2CC[C@@H](O)[C@H](OC)C2)CC(=O)[C@H](C)/C=C(\C)[C@@H](O)[C@@H](OC)C(=O)[C@H](C)C[C@H](C)/C=C/C=C/C=C/1C [rapamycin, reference compound]
[1]
  EGF-induced ERK1/2 MAP kinase phosphorylation: did not inhibit

## O=C([O-])c1ccccc1O.[Na+] [sodium salicylate, reference compound]
[7]
  mTOR activity: without effect
[8]
  association of mTOR and raptor: without effect

## TGF alpha: growth factor used to activate MAP kinase in wild type MCF-7 cells
[9]
  shift to the left of estradiol dose response for growth: two log shift to the left
[9]; listed as TGF
  shift to the left of estradiol dose response for growth: 2 log
